Values of other authors in PubChem BioAssay AID1259409 (Chemical Carcinogenesis Research Information System (CCRIS), 2018).

Test system: rodent chemically induced tumor inhibition, incidence and multiplicity
Assay: CCRIS tumor inhibitor studies
Conditions: Route [Inhibitor]: ORAL, Species: HAMSTER, Promoter: NONE USED

CC1=C(/C=C/C(C)=C/C=C/C(C)=C/C(=O)NCCO)C(C)(C)CCC1
tumour outcome (control, treated, inhibition, significance) (Carcinogen: N-NITROBIS(2-OXOPROPYL)AMINE, 60559-38-4, Dose [Inhibitor]: 0.5 OR 1.0 MMOL/KG DIET DAILY STARTING 1 WK AFTER CARCINOGEN TREATMENT AND CONTINUING THROUGH THE END OF THE STUDY (STUD, Strain/Sex: SYRIAN/MALE, Target Tissue: Type of Lesion: PANCREAS: DUCTULAR CARCINOMA, Dose [Carcinogen]: 10 MG/KG BW ONCE): 4/22 (18%), 7/37 (19%), -6%, not significant
tumour outcome (control, treated, inhibition, significance) (Carcinogen: N-NITROBIS(2-OXOPROPYL)AMINE, 60559-38-4, Dose [Inhibitor]: 0.5 OR 1.0 MMOL/KG DIET DAILY STARTING 1 WK AFTER CARCINOGEN TREATMENT AND CONTINUING THROUGH THE END OF THE STUDY (STUD, Strain/Sex: SYRIAN/MALE, Target Tissue: Type of Lesion: PANCREAS: DUCTULAR CARCINOMA, Dose [Carcinogen]: 40 MG/KG BW ONCE): 5/24 (21%), 20/42 (48%), -129%, not significant
tumour outcome (control, treated, inhibition, significance) (Carcinogen: N-NITROBIS(2-OXOPROPYL)AMINE, 60559-38-4, Dose [Inhibitor]: 0.5 OR 1.0 MMOL/KG IN DIET STARTING 1 WK AFTER CARCINOGEN TREATMENT AND CONTINUING THROUGH THE END OF THE STUDY (STUDY D, Strain/Sex: SYRIAN/FEMALE, Target Tissue: Type of Lesion: LIVER: BENIGN TUMOR, Dose [Carcinogen]: 40 MG/KG BW ONCE): 4/20 (20%), 17/35 (49%), -145%, not significant
tumour outcome (control, treated, inhibition, significance) (Carcinogen: N-NITROBIS(2-OXOPROPYL)AMINE, 60559-38-4, Dose [Inhibitor]: 0.5 OR 1.0 MMOL/KG IN DIET STARTING 1 WK AFTER CARCINOGEN TREATMENT AND CONTINUING THROUGH THE END OF THE STUDY (STUDY D, Strain/Sex: SYRIAN/FEMALE, Target Tissue: Type of Lesion: PANCREAS: DUCTULAR ADENOMA, Dose [Carcinogen]: 10 MG/KG BW ONCE): 5/23 (23%), 10/37 (27%), -17%, not significant
tumour outcome (control, treated, inhibition, significance) (Carcinogen: N-NITROBIS(2-OXOPROPYL)AMINE, 60559-38-4, Dose [Inhibitor]: 0.5 OR 1.0 MMOL/KG IN DIET STARTING 1 WK AFTER CARCINOGEN TREATMENT AND CONTINUING THROUGH THE END OF THE STUDY (STUDY D, Strain/Sex: SYRIAN/FEMALE, Target Tissue: Type of Lesion: PANCREAS: DUCTULAR ADENOMA, Dose [Carcinogen]: 40 MG/KG BW ONCE): 12/20 (60%), 27/33 (82%), -37%, not significant
tumour outcome (control, treated, inhibition, significance) (Carcinogen: N-NITROBIS(2-OXOPROPYL)AMINE, 60559-38-4, Dose [Inhibitor]: 0.5 OR 1.0 MMOL/KG IN DIET STARTING 1 WK AFTER CARCINOGEN TREATMENT AND CONTINUING THROUGH THE END OF THE STUDY (STUDY D, Strain/Sex: SYRIAN/FEMALE, Target Tissue: Type of Lesion: PANCREAS: DUCTULAR CARCINOMA, Dose [Carcinogen]: 40 MG/KG BW ONCE): 6/20 (30%), 8/33 (24%), 20%, not significant
tumour outcome (control, treated, inhibition, significance) (Carcinogen: N-NITROBIS(2-OXOPROPYL)AMINE, 60559-38-4, Dose [Inhibitor]: 0.5 OR 1.0 MMOL/KG IN DIET STARTING 1 WK AFTER CARCINOGEN TREATMENT AND CONTINUING THROUGH THE END OF THE STUDY (STUDY D, Strain/Sex: SYRIAN/MALE, Target Tissue: Type of Lesion: LIVER: BENIGN TUMOR, Dose [Carcinogen]: 40 MG/KG BW ONCE): 5/24 (21%), 26/42 (62%), -195%, p<0.05
tumour outcome (control, treated, inhibition, significance) (Carcinogen: N-NITROBIS(2-OXOPROPYL)AMINE, 60559-38-4, Dose [Inhibitor]: 0.5 OR 1.0 MMOL/KG IN DIET STARTING 1 WK AFTER CARCINOGEN TREATMENT AND CONTINUING THROUGH THE END OF THE STUDY (STUDY D, Strain/Sex: SYRIAN/MALE, Target Tissue: Type of Lesion: PANCREAS: DUCTULAR ADENOMA, Dose [Carcinogen]: 10 MG/KG BW ONCE): 3/22 (14%), 16/37 (43%), -207%, not significant
tumour outcome (control, treated, inhibition, significance) (Carcinogen: N-NITROBIS(2-OXOPROPYL)AMINE, 60559-38-4, Dose [Inhibitor]: 0.5 OR 1.0 MMOL/KG IN DIET STARTING 1 WK AFTER CARCINOGEN TREATMENT AND CONTINUING THROUGH THE END OF THE STUDY (STUDY D, Strain/Sex: SYRIAN/MALE, Target Tissue: Type of Lesion: PANCREAS: DUCTULAR ADENOMA, Dose [Carcinogen]: 40 MG/KG BW ONCE): 8/24 (33%), 34/42 (81%), -145%, not significant
tumour outcome (control, treated, inhibition, significance) (Carcinogen: N-NITROBIS(2-OXOPROPYL)AMINE, 60559-38-4, Dose [Inhibitor]: 0.5 OR 1.0 MMOL/KG IN DIET STARTING 1 WK AFTER CARCINOGEN TREATMENT AND CONTINUING THROUGH THE END OF THE STUDY (STUDY D, Strain/Sex: SYRIAN/MALE, Target Tissue: Type of Lesion: PANCREAS: DUCTULAR CARCINOMA, Dose [Carcinogen]: 10 MG/KG BW SINGLE INJECTION): 4/22 (18%), 7/37 (19%), -6%, not significant
tumour outcome (control, treated, inhibition, significance) (Carcinogen: N-NITROBIS(2-OXOPROPYL)AMINE, 60559-38-4, Dose [Inhibitor]: 0.5 OR 1.0 MMOL/KG IN DIET STARTING 1 WK AFTER CARCINOGEN TREATMENT AND CONTINUING THROUGH THE END OF THE STUDY (STUDY D, Strain/Sex: SYRIAN/MALE, Target Tissue: Type of Lesion: PANCREAS: DUCTULAR CARCINOMA, Dose [Carcinogen]: 40 MG/KG BW ONCE): 5/24 (21%), 20/42 (48%), -129%, not significant
tumour outcome (control, treated, inhibition, significance) (Carcinogen: N-NITROSOBIS(2-OXYPROPYL)AMINE, 60599-38-4, Dose [Inhibitor]: 0.05, 0.1 OR 0.2 MILLIMOLAR/KG DIET FOR 32 WK STARTING 1 WK AFTER CARCINOGEN DOSE (STUDY DURATION: 33 WK), Strain/Sex: SYRIAN/FEMALE, Target Tissue: Type of Lesion: LIVER: ADENOMA, Dose [Carcinogen]: 40 MG/KG ONCE): 6/10 (60%), 6/29 (21%), 65%, p<0.025
